Assay results as given in patent US20030073654A1, “Stabilized transient gene expression” (Genespan Corporation, priority 1996, published 2003).
“And” between values parts separate entries of the source, which are not always exact repeats. Equal values may be shown once. “Also recorded” adds a separate entry of the source. Read-outs that look alike come from different tables or passages of the source. Marks after values point to notes of the source that are not given here.

Legend:
[1] = system: SW480 P3 (ATCC #CCL228) human colon carcinoma cells; test: Screening assay for enhancement of transient expression (β-galactosidase gene, liposomal transfection, 6-well plates); type: cell-based; settings: for G Factor (G14): Table 1, values without asterisk, days 4-14 after transfection; for X Factor / K Factor: Table 1; for X Factor: cumulative β-galactosidase vs control, first four days after transfection, compound at the mM given in the table; for K Factor: ratio of first order rate constants of change in expression, control vs compound; for effect on transient expression when present before or during the transfection step: polyanionic carbohydrates, liposomal transfection
Text: These parameters are called the “X” factor, the “G” factor, and the “K” factor. [formula]
This factor reflects the extent to which a chemical compound added to a transfected cell enhances stabilizes transient expression for the first four days following transfection. […] For example, if expression is doubled in the presence of a compound, […]. […] X may be calculated similarly when the agent in question is a mixture of more than one chemical compound.
Cumulative protein expression, i.e., the values for “A” and “C”, is measured by summing the values measured daily in aliquots of the cultured cells.
2. G factors. G factors differ from the X factor only with respect to the time period evaluated. For calculating a G factor, the amount of protein expressed is measured from days 4-7 or days 4-14, where day 0 is the day on which the foreign DNA is added to the cells. The subscripts denote which of the two time periods provided the basis for measurement. […] As for the X factor, [formula]
3. K factor. The K factor is the ratio of the rate constants for the change in the foreign DNA expression in control transfected cells and in cells exposed to a chemical compound of the subject invention. K is determined according to the following equation: [formula]
wherein “k(DNA)” is the first order rate constant for the change in concentration of the protein expressed from the transgenic DNA, which is expressing protein as a function of time, i.e., [formula]
Values for k(DNA) are derived by using a computer program that plots the log of the foreign protein concentration against time, using the results of transgenic protein measurements that begin about 24 hours after the foreign DNA has been added to the cell. […] However, the program calculates a “best fit” line for each data set, and determines the slope of that portion of the resulting line that corresponds to the period during which protein production is changing. […] Thus, the slope is calculated during this period of decline to provide values for k(DNA) and K that can be compared for the purpose of comparing the efficacy of different chemical compounds.
SW480 P3 (ATCC #CCL228) human colon carcinoma cells (typically, 1×10^6 cells) were plated in the wells of a 6-well tissue culture plate. The number of wells plated reflected the number of days post-transfection during which the experiment would proceed. Each well contained 1 ml of complete media from a 30 ml stock solution containing: 26.4 ml RPMI tissue culture medium, 4 mM L-glutamine, 3.0 ml fetal bovine serum, and 10 μg/ml gentamicin. Cells were cultured at 37° C. in a CO2 incubator with 10% CO2 for 24 hours after being plated, during which time the cells adhered to the plates.
After the 24 hour pre-incubation step, the transfection step was carried out by removing the RPMI and adding 900 μL OPTI-MEM® (Gibco) medium containing 2 μg of VR1412 DNA (Vical, Inc., San Diego, Calif.), which expresses the bacterial β-galactosidase gene under the control of a cytomegalovirus promoter, and 8 μg of a mixture of cationic lipid (1,2-dimyristyloxyproply-3-dimethyl-hydroxyethyl ammonium bromide (e.g., “DMRIE/DOPE”) mixed in equimolar proportions with dioleoylphosphatidylethanolamine) to yield a lipid:DNA molar ratio of 0.99:1. It should be noted that typical transient transfection protocols employ 10 μg DNA per 10^6 cells, but the protocol described here uses less DNA in order to reduce toxicity to the cells. The plates were then incubated for 4 hours at 37° C.
After the 4 hour incubation step, 100 μl of heat deactivated fetal bovine serum (to stop transfection), plus 12.0 μl of 50 mg/ml gentamicin were added to each well.

[2] = pH of aqueous solutions of the compounds; type: physicochemical; settings: stock solutions prepared in culture media diluted with deionized water
Description: The pH values shown in Table 1 were determined in aqueous solutions made by diluting stock solutions prepared in culture media with deionized water.

[3] = Table 1, values marked with asterisk, days 4-7 after transfection
[4] = Table 1, days 4-7 after transfection

| Compound | pH (H20) [2] | G Factor (G14) [1] | X Factor [1] | K Factor [1] | other results |
| --- | --- | --- | --- | --- | --- |
| methoxy benzoic acid |  |  |  |  | effect on transient expression [1]: capable of prolonging transient expression |
| C/C1=C2/[N-][C@H]([C@H](CC(N)=O)[C@@]2(C)CCC(=O)NC[C@@H](C)OP(=O)([O-])O[C@H]2[C@@H](O)[C@@H](n3cnc4cc(C)c(C)cc43)O[C@@H]2CO)[C@]2(C)N=C(/C(C)=C3N=C(/C=C4N=C1[C@@H](CCC(N)=O)C\4(C)C)[C@@H](CCC(N)=O)[C@]\3(C)CC(N)=O)[C@@H](CCC(N)=O)[C@]2(C)CC(N)=O.[CH2-][C@H]1O[C@@H](n2cnc3c(N)ncnc32)[C@H](O)[C@@H]1O.[Co] [COENZYME B12] |  | 51 | −17 |  |  |
| gentamicin [reference compound] |  |  |  |  | effect on protein production ([1]; control plates 1A (with gentamicin) vs 1B (no gentamicin)): somewhat suppressed protein production |
| N-carboxymethylchitosan N,S-sulfate |  |  |  |  | effect on transient expression when present before or during the transfection step [1]: blocking effect |
| heparan sulfate |  |  |  |  | effect on transient expression when present before or during the transfection step [1]: blocking effect |
| CNCC(O)c1ccc(O)c(O)c1 (stereo not shown) [ADRENALINE] | 10.29 | 68 | 49 |  | pH (H20) ([2]; listed as adrenaline): ~10 |
| ethyoxy benzoic acid |  |  |  |  | effect on transient expression [1]: capable of prolonging transient expression |
| C/C1=C2/[N-][C@H]([C@H](CC(N)=O)[C@@]2(C)CCC(=O)NC[C@H](C)OP(=O)([O-])O[C@H]2[C@@H](O)[C@@H](n3cnc4cc(C)c(C)cc43)O[C@@H]2CO)[C@]2(C)N=C(/C(C)=C3N=C(/C=C4N=C1[C@@H](CCC(N)=O)C\4(C)C)[C@@H](CCC(N)=O)[C@]\3(C)CC(N)=O)[C@@H](CCC(N)=O)[C@]2(C)CC(N)=O.[CH3-].[Co+3] [METHYLCOBALAMIN] |  | 25 | 1 |  |  |
| N[C@@H](Cc1cc(I)c(O)c(I)c1)C(=O)O [DIIODOTYROSINE] | 7.23 |  | −48 |  | G Factor (G7) [1, 4]: −8* |
| NC(=O)NCCC[C@H](N)C(=O)O [CITRULLINE] | 7.71 | 46 | 39 | 1 |  |
| carboxymethylcellulose |  |  |  |  | effect on transient expression when present before or during the transfection step [1]: blocking effect |
| t-butyl benzoic acid |  |  |  |  | effect on transient expression [1]: capable of prolonging transient expression |
| CCCCCc1ccc(C(=O)O)cc1 [4-PENTYLBENZOIC ACID] |  | −88 | −96 |  |  |
| O=C(O)CCCCC1CCSS1 (stereo not drawn) [α-lipoic acid, lipoic acid] |  |  |  |  | results when substituted for benzoate buffer ([1]; used in conjunction with chondroitin sulfate as in plates 6 or 13 of Table 9): comparable results |
| N=C(N)NCCC[C@H](N)C(=O)O [L-ARGININE] | 8.66 | 57 |  |  | G Factor (G7) [1, 4]: 11 |
| hydroxypropyl guaran |  |  |  |  | effect on transient expression [1]: capable of prolonging transient expression; effect on transient expression ([1]; listed as Hydroxypropyl guarans): enhance transient expression to some degree |
| N[C@@H](Cc1ccccc1)C(=O)O [PHENYLALANINE] | 6.97 | 53 | −12 | 3 |  |
| O=C([O-])c1ccccc1.[Na+] [SODIUM BENZOATE] | 8.14 | −6 | −15 | 1 |  |
| heparin [reference compound] |  |  |  |  | effect on transient expression when added after the transfection step [1]: effective in enhancing transient expression; also recorded: enhance transient expression; effect on transient expression when present before or during the transfection step [1]: blocking effect; also recorded: blocked transient expression |
| NCCC[C@H](N)C(=O)O [ORNITHINE] |  | 28 | 16 |  |  |
| dermatan sulfate |  |  |  |  | effect on transient expression when present before or during the transfection step [1]: blocking effect |
| isobutyl benzoic acid |  |  |  |  | effect on transient expression [1]: capable of prolonging transient expression |
| iso-propyl benzoic acid |  |  |  |  | effect on transient expression [1]: capable of prolonging transient expression |

Continued, in another order:

| pH (H20) [2] | Compound | G Factor (G14) [1] | X Factor [1] | K Factor [1] | other results |
| --- | --- | --- | --- | --- | --- |
| 5.75 | N[C@@H](CC(=O)O)C(=O)O [ASPARTIC ACID] | −45 |  |  | G Factor (G7) [1, 3]: −17 |
| 7.88 | N[C@@H](Cc1ccc(O)cc1)C(=O)O [TYROSINE] | 52 | 36 | 2 |  |
| 4.19 | NC(=O)NC(CC(=O)O)C(=O)O (racemic) [N-CARBAMYL-DL-ASPARTIC ACID] | 115 | 26 |  |  |
| 6.46 | O=C(O)CNC(=O)c1ccccc1 [HIPPURIC ACID] | 33 | 2 | 1 |  |
| 6.64 | O=S(=O)(O)CCN(CCO)CCO [BES] |  | 77 and 57 | 1, 1 |  |
| 8.14 | C[C@@H](O)[C@H](N)C(=O)O [L-THREONINE] | 40 | 28 | 1 |  |
| 7.41 | CSCC[C@H](N)C(=O)O [METHIONINE] | 36 | 2 | 0 |  |
| 6 | Nc1nc2ncc(CNc3ccc(C(=O)N[C@@H](CCC(=O)O)C(=O)O)cc3)nc2c(=O)[nH]1 [FOLIC ACID] | 24 | −1.4 |  |  |
| 4.34 | CSCC[C@H](NC=O)C(=O)O [N-FORMYL-L-METHIONINE] | 63 | 26 |  |  |
| 6.91 | O=C(O)c1cccnc1 [NICOTINIC ACID] | 87 | 12 | 1 |  |
| 6.52 | NC(=O)SC[C@H](N)C(=O)O [S-CARBAMYL-L-CYSTEINE] | −74 | −76 |  |  |
| 6.13 | CCCCCCc1ccc(C(=O)O)cc1 [4-HEXYLBENZOIC ACID] |  |  |  |  |
| 6.75 | N[C@@H](Cc1c[nH]cn1)C(=O)O [HISTIDINE] | 6 |  | 1, 1 | G Factor (G7) [1, 3]: 54 |
| 8.38 | NCCC(=O)O [β-ALANINE] | 33 | 0.2 | 1 |  |
| 6.99 | CC[C@H](C)[C@H](N)C(=O)O [ISOLEUCINE] | 30 | −119 |  |  |
| 7.88 | NCCS(=O)(=O)O [TAURINE] | 34 | −20 | 2 |  |
| 3.58 | N[C@@H](CCC(=O)N[C@@H](CS)C(=O)NCC(=O)O)C(=O)O [GLUTATHIONE] | 34 | 2 | 1 | pH (H20) ([2]; listed as glutathione): ~3 |
| 6.44 | CCOC(=O)CC[C@H](NCc1ccc(N)cc1)C(=O)OCC [N-(4-AMINOBENZYL)-L-GLUTAMIC DIETHYLESTER] | 8 | −35 |  |  |
| 3.8 | Nc1cccc(S(=O)(=O)O)c1 [3-AMINO BENZENE SULFONIC ACID] | 32 | −19 |  |  |
| 7.58 | CCC(N)C(=O)O (stereo not drawn) [α-AMINO-n-BUTYRIC ACID] | 35 | −.19 | 1 |  |
| 7.71 | O=C(O)[C@@H]1CCCN1 [PROLINE] | 21 | −22 |  |  |
| 5.94 | CCCCc1ccc(C(=O)O)cc1 [4-BUTYLBENZOIC ACID] |  |  |  |  |
